According to patent publication US20090054450A1, “COMPOSITIONS AND METHODS OF USE FOR TREATING OR PREVENTING LIPID RELATED DISORDERS” (IRONWOOD PHARMACEUTICALS, INC., priority 2007, published 2009):

Assays:
[1] = test system: rat high fat, high cholesterol diet model; test: Rat High Fat, High Cholesterol Diet Model; type: in vivo; details: HFHC diet rats; for HDL / LDL / VLDL: once daily perorally for seven days, serum VAP analysis, compound 13 at 3, 10, 30 mg/kg; for HDL / LDL / VLDL / blood glucose: compound 10A at 3, 10, or 30 mg/kg, compound 5A at 100 mg/kg; for blood glucose: seven days dosing
Method: Fibrate and statin derivatives, alone and in combination, are tested for effects on cholesterol and lipid profiles in a rat high fat diet model for example as described in Ghibaudi et al. (2002) Obes Res 10:956-63, Ricci and Levin (2003) Am J Physiol Regul Integr Comp Physiol 285:R610-8, and Gao et al. (2002) 936:87-90. Alternatively, animals are fed either a normal diet or a chow supplemented with added fat and/or cholesterol as described in Krause et al (1994) Pharm Res Vol 29, No. 4, Nishina (1993) J of Lipid Res vol 43. and Gajda et al. (2007) Animal Lab News. Based on the specific chows used in these reports, we fed animals a diet consisting of 40% fat, 1% cholesterol, and 0.5% cholic acid (catalog #D01061201, Research Diets, New Brunswick, N.J. 08901). After at least a week on this diet, animals (6-8/group) are dosed once daily perorally with 300 uL test compounds in PEG 400 or suitable vehicle. Groups are dosed for at least one week before whole blood samples are taken for analysis. Blood serum is analyzed using Vertical Auto Profile (VAP; Atherotech, Inc., Birmingham, Ala.) analysis similar to as described in Kulkami (2006) Clin Lab Med 26:787-802.
Similarly, when tested in this assay, Compound 5A [(E)-4-(3,5-dimethoxystyryl)phenyl 2-(4-(4-chlorobenzoyl)phenoxy)-2-methylpropanoate] was associated with decreased LDL and VLDL, no change in blood glucose, and increased HDL. Graphical depictions showing the LDL, VLDL and HDL analyses for compounds 10A and 5A are shown in FIGS. 1, 2, and 3 respectively. Compound 13 (4-(nitrooxy)butyl 2-(4-(4-chlorobenzoyl)phenoxy)-2-methylpropanoate) was also tested in this assay. FIGS. 4-6 are graphs showing that Compound 13 decreased LDL (FIG. 4) and VLDL (FIG. 5) and increased HDL (FIG. 6). Fenofibrate was also tested in this assay at 2, 6.8 and 20.5 mg/kg (FIGS. 4-6) which are equimolar equivalents (for the fenofibric acid moiety) of Compound 10A dosed at […]. Similar untested dose equivalent amounts to Compound 13 at 3, 10, and 30 mg/kg would be 2.5, 8.3, and 24.8 mg/kg of fenofibrate. In these experiments animals (n=6 per group) were fed either a normal chow (chow) or high fat high cholesterol chow (HFHC; 40% fat, 1% cholesterol, 0.5% cholic acid) diet for one week before test compound administration. Animals received either no test compound (“naïve”), vehicle only (PEG 400) or test compound (compound 10A at 3, 10, or 30 mg/kg, compound 5A at 100 mg/kg, compound 13 at 3, 10, 30 mg/kg, or fenofibrate at 2, 6.8, or 20.5 mg/kg) for seven days before whole blood samples were taken for analysis. […] Compound 8A may be useful for another contemplated use described herein however.

ob/ob mice [2] = details: fenofibrate 100 mg/kg; McCarmona et al. (2005); cited from earlier work
ob/ob mice [3] = test: Obese (ob/ob) Mouse Model, blood glucose; type: in vivo; details: ob/ob mice on high fat chow, perorally once daily for three weeks, days 7, 14, 21; Compound 10A 30 and 100 mg/kg, Compound 121 43 or 1000 mg/kg, fenofibrate 68 mg/kg
Method: The increased expression of plasma lipids in ob/ob mice make them a useful model for the study of drugs designed to lower cholesterol. In these experiments animals (n=10 per group) were fed a high fat chow (HF; 60% fat,) for one week before test compound administration and continued on this diet for the duration of the experiment. Animals received either vehicle only (PEG 400), or test compound (Compound 121 (resveratrol) at 43 or 1000 mg/kg, Compound 10A at 30 or 100 mg/kg, or fenofibrate at 68 mg/kg) perorally once daily for a total of three weeks. Blood samples were collected weekly for the determination of fasting glucose levels (One touch Ultra, LifeScan Inc). Blood serum was analyzed after three weeks using Vertical Auto Profile (VAP; Atherotech, Inc., Birmingham, Ala.) analysis similar to as described in Kulkami (2006) Clin Lab Med 26:787-802. […] 43 mg/kg of compound 121 (resveratrol) and 68 mg/kg of fenofibrate are the equimolar equivalents to the amounts of resveratrol and fenofibric acid moieties in 100 mg/kg of Compound 10A. […] FIG. 8 is a pharmacokinetic profile (using the methodologies as described herein) analyzing fenofibric acid levels in blood plasma of ob/ob mice dosed with either 68 mg/kg of fenofibrate, or 30 mg/kg or 100 mg/kg of Compound 10A.

[4] = Pharmacokinetics in rat high fat high cholesterol diet model (LC/MS-MS); type: in vivo; details: oral administration, vs compound 121 (resveratrol)
Method: Similarly, when tested in this assay, Compound 5A [(E)-4-(3,5-dimethoxystyryl)phenyl 2-(4-(4-chlorobenzoyl)phenoxy)-2-methylpropanoate] was associated with decreased LDL and VLDL, no change in blood glucose, and increased HDL. Graphical depictions showing the LDL, VLDL and HDL analyses for compounds 10A and 5A are shown in FIGS. 1, 2, and 3 respectively. Compound 13 (4-(nitrooxy)butyl 2-(4-(4-chlorobenzoyl)phenoxy)-2-methylpropanoate) was also tested in this assay. FIGS. 4-6 are graphs showing that Compound 13 decreased LDL (FIG. 4) and VLDL (FIG. 5) and increased HDL (FIG. 6). Fenofibrate was also tested in this assay at 2, 6.8 and 20.5 mg/kg (FIGS. 4-6) which are equimolar equivalents (for the fenofibric acid moiety) of Compound 10A dosed at […]. Similar untested dose equivalent amounts to Compound 13 at 3, 10, and 30 mg/kg would be 2.5, 8.3, and 24.8 mg/kg of fenofibrate. […]
(§1) Various pharmacokinetic parameters were calculated by collecting plasma samples from animals dosed with a test compound and analyzed by LC/MS-MS. […] Concentrations were determined by relative responses to an internal standard and calculated based on a standard concentration curve of the test compound. […] Oral Bioavailability (Fn) was calculated using the equation: F=(AUCoral/AUCIV)*DoseIV.Doseoral). Cmax and Tmax are determined by visual inspection of the oral concentration curve. […]

[5] = Pharmacokinetic profile in blood plasma of ob/ob mice (LC/MS-MS); type: in vivo, mouse
Method: The increased expression of plasma lipids in ob/ob mice make them a useful model for the study of drugs designed to lower cholesterol. In these experiments animals (n=10 per group) were fed a high fat chow (HF; 60% fat,) for one week before test compound administration and continued on this diet for the duration of the experiment. Animals received either vehicle only (PEG 400), or test compound (Compound 121 (resveratrol) at 43 or 1000 mg/kg, Compound 10A at 30 or 100 mg/kg, or fenofibrate at 68 mg/kg) perorally once daily for a total of three weeks. Blood samples were collected weekly for the determination of fasting glucose levels (One touch Ultra, LifeScan Inc). Blood serum was analyzed after three weeks using Vertical Auto Profile (VAP; Atherotech, Inc., Birmingham, Ala.) analysis similar to as described in Kulkami (2006) Clin Lab Med 26:787-802. […]
as §1

SMILES	HDL [1]	LDL [1]	VLDL [1]	blood glucose [1]	blood glucose (fasting), change compared to day 0 (ob/ob mice [3])	further results
COc1cc(/C=C/c2ccc(OC(=O)C(C)(C)Oc3ccc(C(=O)c4ccc(Cl)cc4)cc3)cc2)cc(OC)c1 [Compound 5A, (E)-4-(3,5-dimethoxystyryl)phenyl 2-(4-(4-chlorobenzoyl)phenoxy)-2-methylpropanoate]	increased	decreased	decreased	no change		
CC(C)(Oc1ccc(C(=O)c2ccc(Cl)cc2)cc1)C(=O)OCCCCO[N+](=O)[O-] [Compound 13, 4-(nitrooxy)butyl 2-(4-(4-chlorobenzoyl)phenoxy)-2-methylpropanoate]	increased	decreased	decreased			
CC(C)OC(=O)C(C)(C)Oc1ccc(C(=O)c2ccc(Cl)cc2)cc1 [fenofibrate, 2-[4-(4-chlorobenzoyl)phenoxy]-2-methyl-propanoic acid, 1-methylethyl ester]					neither Compound 121 (resveratrol; dosed at 43 or 1000 mg/kg) or fenofibrate (dosed at 68 mg/kg) resulted in statistically significant changes	blood glucose in ob/ob mice (ob/ob mice [2]): shown to decrease blood glucose
CC(=O)Oc1cc(/C=C/c2ccc(OC(=O)C(C)(C)Oc3ccc(C(=O)c4ccc(Cl)cc4)cc3)cc2)cc(OC(C)=O)c1 [Compound 8A, (E)-5-(4-(2-(4-(4-chlorobenzoyl)phenoxy)-2-methylpropanoyloxy)styryl)-1,3-phenylene diacetate]						efficacy in rat high fat, high cholesterol diet model [1]: does not show any efficacy; melting point: 112 to 113 °C
CC(C)(Oc1ccc(C(=O)c2ccc(Cl)cc2)cc1)C(=O)Oc1ccc(/C=C/c2cc(O)cc(O)c2)cc1.Cl [Compound 10A, (E)-4-(3,5-dihydroxystyryl)phenyl 2-(4-(4-chlorobenzoyl)phenoxy)-2-methylpropanoate]	increased	dose related decreases	dose related decreases	decreased	statistically significant (when compared to day 0) decreases	resveratrol pharmacokinetic profile [4]: different resveratrol pharmacokinetic profile; fenofibric acid exposure in blood plasma ([5]; ob/ob mice, 30 mg/kg Compound 10A as compared to 68 mg/kg fenofibrate): less fenofibric acid exposure; resveratrol pharmacokinetic profile ([5]; obese mouse model, oral administration, 100 mg/kg Compound 10A vs 43 mg/kg compound 121 (resveratrol)): different resveratrol pharmacokinetic profile
Oc1ccc(/C=C/c2cc(O)cc(O)c2)cc1 [Compound 121, (E)-5-(4-hydroxystyryl)benzene-1,3-diol]					neither Compound 121 (resveratrol; dosed at 43 or 1000 mg/kg) or fenofibrate (dosed at 68 mg/kg) resulted in statistically significant changes	
